# Test results from publication PMC11672637, “7-O-Carboxylic Acid-Substituted 3-O-Alkyl Difluoroquercetin; An Aztreonam-Potentiating Agent Against Carbapenemase-Producing Pseudomonas aeruginosa Through Simultaneous Inhibition of Metallo-β-Lactamase and Efflux Pump” (Antibiotics, 2024).
# Where two headings read alike, the source gives them in different places.
# Assays:
# Format in all cases: cell-based, P. aeruginosa
# PA-035, blaGES = experiment: MIC / checkerboard with ATM; details: for MIC: Pseudomonas aeruginosa, read-out: MIC of ATM with 5, PA-035
# PA-002, blaIMP [1] = experiment: MIC / checkerboard with ATM; details: for MIC: Pseudomonas aeruginosa, read-out: MIC of ATM with 5, PA-002
# PA-040, blaNDM = experiment: MIC / checkerboard with ATM; details: for MIC: Pseudomonas aeruginosa, read-out: MIC of ATM with 5, PA-040
# PA-002, blaIMP [2] = experiment: Time–kill assay; details: for Log CFU/mL, ATM + 5: 24 h
# Experimental: (§1) Aliquots (50 μL) were taken from the incubation mixture at regular time intervals (t = 0, 3, 6, and 24 h), serially diluted in 0.85% NaCl solution, and plated on BAP. Bacterial colonies were counted, and the data are presented as the means of at least three independent experiments.
# PA-003, blaVIM = experiment: Time–kill assay; details: ATM 1/2 MIC + 5 at 8 mg/L
# Experimental: as §1
structure (smiles),measurement,setting,value
"CC(C)(C)CCOc1c(-c2ccc(F)c(F)c2)oc2cc(OCC(=O)O)cc(O)c2c1=O [Compound 5, 2-((2-(3,4-Difluorophenyl)-3-(3,3-dimethylbutoxy)-5-hydroxy-4-oxo-4H-chromen-7-yl)oxy)acetic Acid]",Activity (FICI class),"PA-035, blaGES; PA-035","S (S (Synergy, FICI ≤ 0.5))"
same,Concentrations of ATM and 5 at lowest FICI (ATM/5),"PA-035, blaGES; PA-035",2/8
same,Lowest FICI (ATM/5),"PA-035, blaGES; PA-035",0.27
same,Susceptibility to ATM,"PA-035, blaGES; PA-035, ATM/5","S (S (sensitive, MIC ≤ 8 mg/L))"
same,FD (fold decrease in MIC of ATM with 5),"PA-035, blaGES; PA-035, lowest-FICI combination",4
same,MIC,"PA-035, blaGES; 5 at 1 mg/L",8 µg/mL
same,MIC,"PA-035, blaGES; 5 at 2 mg/L",4 µg/mL
same,MIC,"PA-035, blaGES; 5 at 4 mg/L",4 µg/mL
same,MIC,"PA-035, blaGES; 5 at 8 mg/L",2 µg/mL
same,MIC,"PA-035, blaGES; 5 at 16 mg/L",2 µg/mL
same,MIC,"PA-035, blaGES; 5 at 32 mg/L",2 µg/mL
same,MIC,"PA-035, blaGES; 5 at 64 mg/L",2 µg/mL
same,Activity (FICI class),"PA-002, blaIMP [1]; PA-002","S (S (Synergy, FICI ≤ 0.5))"
same,Concentrations of ATM and 5 at lowest FICI (ATM/5),"PA-002, blaIMP [1]; PA-002",8/4
same,Lowest FICI (ATM/5),"PA-002, blaIMP [1]; PA-002",0.26
same,Minimum concentration of 5 to make sensitive to ATM,"PA-002, blaIMP [1]; PA-002",4 mg/L
same,Susceptibility to ATM,"PA-002, blaIMP [1]; PA-002, ATM/5","S (S (sensitive, MIC ≤ 8 mg/L))"
same,FD (fold decrease in MIC of ATM with 5),"PA-002, blaIMP [1]; PA-002, lowest-FICI combination",4
same,MIC,"PA-002, blaIMP [1]; 5 at 1 mg/L",16 µg/mL
same,MIC,"PA-002, blaIMP [1]; 5 at 2 mg/L",16 µg/mL
same,MIC,"PA-002, blaIMP [1]; 5 at 4 mg/L",8 µg/mL
same,MIC,"PA-002, blaIMP [1]; 5 at 8 mg/L",8 µg/mL
same,MIC,"PA-002, blaIMP [1]; 5 at 16 mg/L",4 µg/mL
same,MIC,"PA-002, blaIMP [1]; 5 at 32 mg/L",4 µg/mL
same,MIC,"PA-002, blaIMP [1]; 5 at 64 mg/L",2 µg/mL
same,Activity (FICI class),"PA-040, blaNDM; PA-040","S (S (Synergy, FICI ≤ 0.5))"
same,Concentrations of ATM and 5 at lowest FICI (ATM/5),"PA-040, blaNDM; PA-040",1/32
same,Lowest FICI (ATM/5),"PA-040, blaNDM; PA-040",0.31
same,Susceptibility to ATM,"PA-040, blaNDM; PA-040, ATM/5","S (S (sensitive, MIC ≤ 8 mg/L))"
same,FD (fold decrease in MIC of ATM with 5),"PA-040, blaNDM; PA-040, lowest-FICI combination",4
same,MIC,"PA-040, blaNDM; 5 at 1 mg/L",4 µg/mL
same,MIC,"PA-040, blaNDM; 5 at 2 mg/L",4 µg/mL
same,MIC,"PA-040, blaNDM; 5 at 4 mg/L",2 µg/mL
same,MIC,"PA-040, blaNDM; 5 at 8 mg/L",2 µg/mL
same,MIC,"PA-040, blaNDM; 5 at 16 mg/L",2 µg/mL
same,MIC,"PA-040, blaNDM; 5 at 32 mg/L",1 µg/mL
same,MIC,"PA-040, blaNDM; 5 at 64 mg/L",1 µg/mL
same,"Diff. (ATM + 5, 24 h vs initial inoculum)","PA-002, blaIMP [2]; ATM 1/2 MIC + 5 at 8 mg/L",1.21 Log CFU/mL
same,Diff. (ATM + 5 vs ATM only),"PA-002, blaIMP [2]; ATM 1/2 MIC + 5 at 8 mg/L",−2.36 Log CFU/mL
same,"Synergistic activity, interpretation","PA-002, blaIMP [2]; ATM 1/2 MIC + 5 at 8 mg/L",Synergy (a ≥ 2 log10 decrease in CFU/mL for the combination of ATM and 5 compared to ATM alone after 24 h of incubation)
same,"Log CFU/mL, ATM + 5","PA-002, blaIMP [2]; ATM 1/2 MIC + 5 at 8 mg/L",6.66 Log CFU/mL
same,"Diff. (ATM + 5, 24 h vs initial inoculum)","PA-002, blaIMP [2]; ATM 1/4 MIC + 5 at 8 mg/L",2.26 Log CFU/mL
same,Diff. (ATM + 5 vs ATM only),"PA-002, blaIMP [2]; ATM 1/4 MIC + 5 at 8 mg/L",−1.77 Log CFU/mL
same,"Log CFU/mL, ATM + 5","PA-002, blaIMP [2]; ATM 1/4 MIC + 5 at 8 mg/L",7.71 Log CFU/mL
same,"Diff. (ATM + 5, 24 h vs initial inoculum)","PA-002, blaIMP [2]; ATM 1 MIC + 5 at 8 mg/L",−2.42 Log CFU/mL
same,Diff. (ATM + 5 vs ATM only),"PA-002, blaIMP [2]; ATM 1 MIC + 5 at 8 mg/L",−5.12 Log CFU/mL
same,"Synergistic activity, interpretation","PA-002, blaIMP [2]; ATM 1 MIC + 5 at 8 mg/L",Synergy (a ≥ 2 log10 decrease in CFU/mL for the combination of ATM and 5 compared to ATM alone after 24 h of incubation)
same,"Log CFU/mL, ATM + 5","PA-002, blaIMP [2]; ATM 1 MIC + 5 at 8 mg/L",3.03 Log CFU/mL
same,"Diff. (ATM + 5, 24 h vs initial inoculum)","PA-002, blaIMP [2]; ATM 2 MIC + 5 at 8 mg/L",−5.45 Log CFU/mL
same,Diff. (ATM + 5 vs ATM only),"PA-002, blaIMP [2]; ATM 2 MIC + 5 at 8 mg/L",−5.5 Log CFU/mL
same,"Synergistic activity, interpretation","PA-002, blaIMP [2]; ATM 2 MIC + 5 at 8 mg/L",Synergy (a ≥ 2 log10 decrease in CFU/mL for the combination of ATM and 5 compared to ATM alone after 24 h of incubation)
same,"Log CFU/mL, ATM + 5","PA-002, blaIMP [2]; ATM 2 MIC + 5 at 8 mg/L",0.00 Log CFU/mL
same,"Diff. (ATM + 5, 24 h vs initial inoculum)","PA-003, blaVIM",4.11 Log CFU/mL
